{
  "source": "patent US12630765B2",
  "about": "“Fertilizer composition for reducing methane gas emission comprising ethephon and uses thereof” (priority 2020, dated 2026)",
  "key": {"methanogens in soils": {"system": "methanogens in soils", "assay": "Methane concentration in headspace of soils at fresh water conditions treated with Co-M structural analogues", "settings": "for Methane concentration in headspace: 20 mg/kg in soils at fresh water conditions, cultivation for 50 days; for methane emission amount reduced compared to the control: 20 mg/kg in soils, 50 days, vs soils without sample treatment", "source_text": "(§1) It is known that coenzyme M (hereinbelow, “Co-M”), which is produced during the intercellular reactions of methanogens, is an inhibitor for specifically inhibiting the methanogenic activity of methanogens. Accordingly, ethephon was selected in the present invention as a structural analogue of Co-M. Specifically, CES (2-chloroethane sulfonate), BES (2-bromoethane sulfonate), and MES (2-mercaptoethane sulfonate) that are known as a structural analogue of Co-M, and ethephon (IUPAC name: 2-chloroethyl phosphonic acid) selected as a structural analogue of Co-M in the present invention were applied, each at the same concentration (20 mg/kg), to soils at fresh water conditions. Then, along with cultivation for 50 days, methane concentration in headspace and activity of the methanogens in soils were measured.\n(§2) First, methane concentration in headspace was measured and emission amount of methane gas was analyzed."}, "[1]": {"system": "methanogens in soils (mcrA, methyl coenzyme-M reductase gene)", "assay": "Activity of methanogens in soils (mcrA gene copy number)", "settings": "for Activity of methanogens (mcrA gene copy no./g soil): 20 mg/kg in soils at fresh water conditions, cultivation for 50 days; for mcrA gene copy number reduced compared to the control: 20 mg/kg in soils, 50 days, vs control", "source_text": "as §1, §2"}, "[2]": {"system": "methanogens in soils of flooded rice paddies", "assay": "Methane emission from soils of flooded rice paddies during rice cultivation after fertilizer application", "type": "in vivo", "settings": "for Methane emission: applied before rice transplanting", "procedure": "To acetone in which ethephon has been dissolved at various concentrations based on the blending ratio described in the following Table 4, cellulose acetate was added and dissolved therein. After mixing the resultant with gypsum and drying the mixture till to have evaporation of acetone, the mixture was crushed to have particle size of not more than 2 mm. Accordingly, fertilizer capable of reducing methane emission amount by delaying the ethephon degradation in soils was prepared. Since acetone is highly volatile so that it can completely evaporate during the process of mixing and drying ethephon, cellulose acetate, and gypsum, it is used in minimum amount depending on the total amount of mixture. Meanwhile, the ethephon treatment amount of 2 kg/ha, 6 kg/ha, and 10 kg/ha means that ethephon is applied at concentration of 1 mg/kg, 3 mg/kg, and 5 mg/kg (ppm), respectively, in soils.\n(§3) Fertilizer composition prepared by mixing ethephon, cellulose acetate, and gypsum at various mixing ratios was applied in an amount of 2 ton/ha to soils of flooded rice paddies before rice transplanting. Then, emission amount of methane during the subsequent process of cultivating rice, effect of inhibiting methane emission, and yield property of rice were analyzed."}, "rice": {"system": "rice", "assay": "Yield property of rice after fertilizer application", "type": "in vivo, Oryza sativa", "procedure": "as §3"}, "[3]": {"settings": "ethephon 2 kg/ha with gypsum 1940 kg/ha and CA 60 kg/ha"}, "[4]": {"settings": "ethephon 6 kg/ha with gypsum 1940 kg/ha and CA 60 kg/ha"}, "[5]": {"settings": "ethephon 10 kg/ha with gypsum 1940 kg/ha and CA 60 kg/ha"}},
  "data": [
    {"molecule": "O=S(=O)([O-])CCBr.[Na+]", "note": "[BES, 2-bromoethane sulfonate]", "values": [
      {"measurement": "Methane concentration in headspace", "setting": "methanogens in soils", "value": 4.4, "unit": "mg/L"},
      {"measurement": "methane emission amount reduced compared to the control", "setting": "methanogens in soils", "value": "~56", "unit": "%"},
      {"measurement": "Activity of methanogens (mcrA gene copy no./g soil)", "setting": "[1]", "value": "1.65 × 10^6 mcrA gene copy no./g soil"},
      {"measurement": "mcrA gene copy number reduced compared to the control", "setting": "[1]", "value": "~45", "unit": "%"}
    ]},
    {"molecule": "O=P(O)(O)CCCl", "note": "[Ethephon, 2-chloroethyl phosphonic acid]", "values": [
      {"measurement": "Methane concentration in headspace", "setting": "methanogens in soils", "value": 4.4, "unit": "mg/L"},
      {"measurement": "methane emission amount reduced compared to the control", "setting": "methanogens in soils", "value": "~56", "unit": "%"},
      {"measurement": "Effect of inhibiting methanogenesis", "setting": "[2]; [3]", "value": 50.5, "unit": "%"},
      {"measurement": "Methane emission", "setting": "[2]; [3]", "value": 36.9, "unit": "kg CH4 ha^−1"},
      {"measurement": "Effect of inhibiting methanogenesis", "setting": "[2]; [4]", "value": 78.6, "unit": "%"},
      {"measurement": "Methane emission", "setting": "[2]; [4]", "value": 15.9, "unit": "kg CH4 ha^−1"},
      {"measurement": "Effect of inhibiting methanogenesis", "setting": "[2]; [5]", "value": 98.1, "unit": "%"},
      {"measurement": "Methane emission", "setting": "[2]; [5]", "value": 1.4, "unit": "kg CH4 ha^−1"},
      {"measurement": "Effect of inhibiting methanogenesis", "setting": "[2]; ethephon 10 kg/ha with gypsum 1940 kg/ha and CA 60 kg/ha, listed as ethephon", "value": "about 98.1%"},
      {"measurement": "methane gas emission amount from flooded rice paddies", "setting": "[2]; fertilizer containing ethephon vs fertilizer not containing any ethephon", "value": "significantly lower"},
      {"measurement": "Activity of methanogens (mcrA gene copy no./g soil)", "setting": "[1]", "value": "1.35 × 10^6 mcrA gene copy no./g soil"},
      {"measurement": "mcrA gene copy number reduced compared to the control", "setting": "[1]", "value": "~55", "unit": "%"},
      {"measurement": "Grain yield", "setting": "rice; [3]", "value": 6331, "unit": "kg/ha"},
      {"measurement": "Straw yield", "setting": "rice; [3]", "value": 6964, "unit": "kg/ha"},
      {"measurement": "Yield index", "setting": "rice; [3]", "value": 100},
      {"measurement": "change in rice yield in relation to the application amount of ethephon", "setting": "rice; ethephon 2 to 10 kg/ha in fertilizer", "value": "no significant change in rice yield"},
      {"measurement": "Grain yield", "setting": "rice; [4]", "value": 6298, "unit": "kg/ha"},
      {"measurement": "Straw yield", "setting": "rice; [4]", "value": 6928, "unit": "kg/ha"},
      {"measurement": "Yield index", "setting": "rice; [4]", "value": 99.6},
      {"measurement": "Grain yield", "setting": "rice; [5]", "value": 6315, "unit": "kg/ha"},
      {"measurement": "Straw yield", "setting": "rice; [5]", "value": 6946, "unit": "kg/ha"},
      {"measurement": "Yield index", "setting": "rice; [5]", "value": 99.9}
    ]},
    {"molecule": "O=S(=O)([O-])CCCl.[Na+]", "note": "[CES, 2-chloroethane sulfonate]", "values": [
      {"measurement": "Methane concentration in headspace", "setting": "methanogens in soils", "value": 5.1, "unit": "mg/L"},
      {"measurement": "methane emission amount reduced compared to the control", "setting": "methanogens in soils", "value": "about 48%"},
      {"measurement": "Activity of methanogens (mcrA gene copy no./g soil)", "setting": "[1]", "value": "1.86 × 10^6 mcrA gene copy no./g soil"},
      {"measurement": "mcrA gene copy number reduced compared to the control", "setting": "[1]", "value": "about 39%"}
    ]}
  ]
}
